From PubChem BioAssay AID1259407 (Chemical Carcinogenesis Research Information System (CCRIS), 2018) come the findings set out here.

The data set deals with CCRIS mutagenicity, Ames/micronucleus/aberration tests. Put plainly: CCRIS mutagenicity studies.
Setting [1] is: Test System: AMES SALMONELLA TYPHIMURIUM, Strain/Indicator: TA98, Metabolic Activation: NONE, Method: PREINCUBATION
The mark [2] stands for this setting: Test System: AMES SALMONELLA TYPHIMURIUM, Strain/Indicator: TA100, Metabolic Activation: NONE, Method: PREINCUBATION
Where [3] appears, read: Test System: AMES SALMONELLA TYPHIMURIUM, Strain/Indicator: TA1535, Metabolic Activation: NONE, Method: PREINCUBATION
Where [4] appears, read: Test System: AMES SALMONELLA TYPHIMURIUM, Strain/Indicator: TA1538, Metabolic Activation: NONE, Method: PREINCUBATION
[5] abbreviates: Test System: AMES SALMONELLA TYPHIMURIUM, Strain/Indicator: TA98, Metabolic Activation: NONE, Method: STANDARD PLATE.
Setting [6] is: Test System: AMES SALMONELLA TYPHIMURIUM, Strain/Indicator: TA100, Metabolic Activation: NONE, Method: STANDARD PLATE.

The source made the active and inactive calls. No rule for the calls is given here.

As for `CC1CCc2c(N3CCC(O)CC3)c(F)cc3c(=O)c(C(=O)O)cn1c23` (stereo not drawn), the mutagenic call runs as follows: under setting [1], “inactive; negative”; (Test System: AMES SALMONELLA TYPHIMURIUM, Strain/Indicator: TA98, Metabolic Activation: RAT, LIVER, S-9, NADPH, Method: PREINCUBATION) “inactive; negative”; under setting [2], “inactive; negative”; (Test System: AMES SALMONELLA TYPHIMURIUM, Strain/Indicator: TA100, Metabolic Activation: RAT, LIVER, S-9, NADPH, Method: PREINCUBATION) “inactive; negative”; under setting [3], “inactive; negative”; (Test System: AMES SALMONELLA TYPHIMURIUM, Strain/Indicator: TA1535, Metabolic Activation: RAT, LIVER, S-9, NADPH, Method: PREINCUBATION) “inactive; negative”. Moreover, the mutagenic call (Test System: AMES SALMONELLA TYPHIMURIUM, Strain/Indicator: TA1537, Metabolic Activation: NONE, Method: PREINCUBATION) was “inactive; negative”; the mutagenic call (Test System: AMES SALMONELLA TYPHIMURIUM, Strain/Indicator: TA1537, Metabolic Activation: RAT, LIVER, S-9, NADPH, Method: PREINCUBATION) was “inactive; negative”; the mutagenic call under setting [4] is “inactive; negative”; the mutagenic call (Test System: AMES SALMONELLA TYPHIMURIUM, Strain/Indicator: TA1538, Metabolic Activation: RAT, LIVER, S-9, NADPH, Method: PREINCUBATION) was “inactive; negative”; the mutagenic call (Test System: E. COLI, Strain/Indicator: WP2 UVRA, Metabolic Activation: RAT, LIVER, S-9, NADPH, Method: PREINCUBATION) was “inactive; negative”; the mutagenic call (Test System: E.COLI, Strain/Indicator: WP2 UVRA, Metabolic Activation: NONE, Method: PREINCUBATION) was “inactive; negative”.
For the compound `Nc1ncc(/C=C/c2ccc([N+](=O)[O-])o2)nn1`, the mutagenic call reads like this: (Test System: E. COLI, Strain/Indicator: WP2, Metabolic Activation: NONE, Method: SPOT) “active; positive”; (Test System: E. COLI, Strain/Indicator: WP2 UVRA, Metabolic Activation: NONE, Method: SPOT) “active; positive”; (Test System: E. COLI, Strain/Indicator: WP2 UVRA, Metabolic Activation: NONE, Method: STANDARD PLATE) “active; positive”.
Take `c1ccc2c(c1)ccc1cc3ccc4ccccc4c3nc12`: the mutagenic call (Test System: AMES SALMONELLA TYPHIMURIUM, Strain/Indicator: TA100, Metabolic Activation: RAT, LIVER, S-9, PHENOBARBITAL AND 5,6-BENZOFLAVONE, Method: STANDARD PLATE) is “active; positive”.
Regarding `CCOC(=O)Cc1c(C(=O)O)c2ccccc2n1C`, the mutagenic call (Test System: AMES SALMONELLA TYPHIMURIUM, Strain/Indicator: TA97, Metabolic Activation: NONE, Method: STANDARD PLATE) was “inactive; negative”; the mutagenic call (Test System: AMES SALMONELLA TYPHIMURIUM, Strain/Indicator: TA97, Metabolic Activation: RAT, LIVER, S-9, AROCLOR 1254 (4%, 10%), Method: STANDARD PLATE) was “inactive; negative”; the mutagenic call under setting [5] is “inactive; negative”; the mutagenic call (Test System: AMES SALMONELLA TYPHIMURIUM, Strain/Indicator: TA98, Metabolic Activation: RAT, LIVER, S-9, AROCLOR 1254 (4%, 10%), Method: STANDARD PLATE) is “inactive; negative”; the mutagenic call under setting [6] is “inactive; negative”; the mutagenic call (Test System: AMES SALMONELLA TYPHIMURIUM, Strain/Indicator: TA100, Metabolic Activation: RAT, LIVER, S-9, AROCLOR 1254 (4%, 10%), Method: STANDARD PLATE) was “inactive; negative”. Besides, the mutagenic call was “inactive; negative” (Test System: AMES SALMONELLA TYPHIMURIUM, Strain/Indicator: TA102, Metabolic Activation: NONE, Method: STANDARD PLATE) and “inactive; negative” (Test System: AMES SALMONELLA TYPHIMURIUM, Strain/Indicator: TA102, Metabolic Activation: RAT, LIVER, S-9, AROCLOR 1254 (4%, 10%), Method: STANDARD PLATE).
As to `C=C(C)[C@@H]1CC=C(C=O)CC1`, the mutagenic call reads like this: (Test System: AMES SALMONELLA TYPHIMURIUM, Strain/Indicator: TA97, Metabolic Activation: NONE, Method: PREINCUBATION) “inactive; negative”; (Test System: AMES SALMONELLA TYPHIMURIUM, Strain/Indicator: TA97, Metabolic Activation: RAT, LIVER, S-9, AROCLOR 1254, Method: PREINCUBATION) “inactive; negative”; (Test System: AMES SALMONELLA TYPHIMURIUM, Strain/Indicator: TA102, Metabolic Activation: NONE, Method: PREINCUBATION) “inactive; negative”; (Test System: AMES SALMONELLA TYPHIMURIUM, Strain/Indicator: TA102, Metabolic Activation: RAT, LIVER, S-9, AROCLOR 1254, Method: PREINCUBATION) “inactive; negative”.
Regarding `O=[N+]([O-])c1cc(C(F)(F)F)cc([N+](=O)[O-])c1Cl`, the mutagenic call under setting [5] was “inactive; negative”; the mutagenic call (Test System: AMES SALMONELLA TYPHIMURIUM, Strain/Indicator: TA98, Metabolic Activation: RAT, LIVER, S-9, AROCLOR 1254, Method: STANDARD PLATE) is “inactive; negative”; the mutagenic call under setting [6] is “inactive; negative”; the mutagenic call (Test System: AMES SALMONELLA TYPHIMURIUM, Strain/Indicator: TA100, Metabolic Activation: RAT, LIVER, S-9, AROCLOR 1254, Method: STANDARD PLATE) was “inactive; negative”; the mutagenic call (Test System: AMES SALMONELLA TYPHIMURIUM, Strain/Indicator: TA1535, Metabolic Activation: NONE, Method: STANDARD PLATE) is “inactive; negative”; the mutagenic call (Test System: AMES SALMONELLA TYPHIMURIUM, Strain/Indicator: TA1535, Metabolic Activation: RAT, LIVER, S-9, AROCLOR 1254, Method: STANDARD PLATE) was “inactive; negative”. In addition, the mutagenic call runs as follows: (Test System: AMES SALMONELLA TYPHIMURIUM, Strain/Indicator: TA1537, Metabolic Activation: NONE, Method: STANDARD PLATE) “inactive; negative”; (Test System: AMES SALMONELLA TYPHIMURIUM, Strain/Indicator: TA1537, Metabolic Activation: RAT, LIVER, S-9, AROCLOR 1254, Method: STANDARD PLATE) “inactive; negative”; (Test System: AMES SALMONELLA TYPHIMURIUM, Strain/Indicator: TA1538, Metabolic Activation: NONE, Method: STANDARD PLATE) “inactive; negative”; (Test System: AMES SALMONELLA TYPHIMURIUM, Strain/Indicator: TA1538, Metabolic Activation: RAT, LIVER, S-9, AROCLOR 1254, Method: STANDARD PLATE) “inactive; negative”.
As for `ClCC(Cl)COCC(Cl)CCl` (stereo not drawn), the mutagenic call under setting [1] was “inactive; negative”; the mutagenic call (Test System: AMES SALMONELLA TYPHIMURIUM, Strain/Indicator: TA98, Metabolic Activation: RAT LIVER S-9, AROCLOR 1254 (10%), Method: PREINCUBATION) is “active; positive”; the mutagenic call under setting [2] is “inactive; negative”; the mutagenic call (Test System: AMES SALMONELLA TYPHIMURIUM, Strain/Indicator: TA100, Metabolic Activation: RAT LIVER S-9, AROCLOR 1254 (10%), Method: PREINCUBATION) is “active; positive”; the mutagenic call under setting [3] was “inactive; negative”; the mutagenic call (Test System: AMES SALMONELLA TYPHIMURIUM, Strain/Indicator: TA1535, Metabolic Activation: RAT LIVER S-9, AROCLOR 1254 (10%), Method: PREINCUBATION) is “active; positive”. For the same compound, the mutagenic call is “inactive; negative” under setting [4] and “inactive; negative” (Test System: AMES SALMONELLA TYPHIMURIUM, Strain/Indicator: TA1538, Metabolic Activation: RAT LIVER S-9, AROCLOR 1254 (10%), Method: PREINCUBATION).
Regarding `CCN=NC(C)(C)OO`, the mutagenic call was “inactive; negative” (Test System: AMES SALMONELLA TYPHIMURIUM, Strain/Indicator: TA1535, Metabolic Activation: NONE) and “active; positive” (Test System: E. COLI, Strain/Indicator: WP2 (HCR-), Metabolic Activation: NONE).
